Assays:
Format in all cases: in vivo, C57BL/6 mice
LP-BM5 [1] = test: Serum IgG by ELISA (hypergammaglobulinemia) in LP-BM5 infected mice; settings: about 4 months from infection
Procedure: Serum IgG levels were determined using an ELISA technique. Briefly, polyvinylchloride microtiter plates (Immulon I; Dynatech Laboratories, Chantilly, VA) were coated with goat anti mouse IgG (Sigma) diluted in 0.135 M sodium chloride for ≥ 24 hr. After four washes with 0.1% tween PBS (TPBS), the plates were blocked with 5% bovin serum albumin (BSA) in PBS for 1 h at 37°C and washed again with TPBS. Serial dilutions of mouse serum were added and after incubation for 1 h at 37°C, the plates were washed four times with TPBS, and 100 µl of horseradish (HRP)-conjugated goat anti-mouse IgG (Bio-Rad, Richmond, CA) was added. After 1 h incubation at 37°C, serum levels were determined using a color development solution containing 2.2 mM O-Phenylenediamine. Absorbance was measured at 492 nm on Model 2550 EIA READER (BIO-RAD). Absolute serum IgG concentrations were obtained using known concentrations of standard mouse IgG.
First, the efficacy of 2-fluoro-ara-AMP (F-araAMP, Fludara) in inhibiting murine AIDS (MAIDS), a disease characterized by a lymphoproliferative disorder (lymphadenopathy and splenomegaly), associated with severe immunodeficiency and hypergammaglobulinemia, was evaluated. The disease develops in some strains of mice (C57BL/6) that are infected with a murine leukemia virus mixture termed LP-BM5. In the first preliminary experiments (after about 4 months from infection) LP-BMS infected animals were treated with three different concentrations of F-ara-AMP: 0.065 mg/mouse, 0.325 mg/mouse, 0.650 mg/mouse. The animals of each group were treated intraperitoneally for 3 days a week and for 3 weeks. At the end of the treatment animals were killed and splenomegaly, lymphadenopathy and hypergammaglobulinemia were evaluated.

mitochondrial DNA = test: Determination of mitochondrial DNA content; settings: treatment C; vs. untreated mice; 10 weeks after infection; not statistically significant
Excerpt: To detect the mitochondrial DNA a 1544-bp mitochondrial DNA fragment was used as a probe. The mitochondrial DNA probe (kindly provided by Dr. Gadaleta, University of Bari, Italy) spans the region from nucleotide 2578 to 4122 in the complete human mitochondrial DNA. As a result of the high homology between human and mouse mitochondrial DNA this probe recognizes human and mouse sequences equally well (data not shown) (Bibb M.J., Van Etten R.A., Wright C.T., Walberg M.W., Clayton D.A., "Sequence and gene organization of mouse mitochondrial DNA.", Cell 1981; 26:167-80).
Total cellular DNA (4 µg) was digested with the restriction enzyme BamHI (Boehringer, Milan, Italy), analyzed on 0.8% agarose gel, blotted and hybridized with the 1544-bp mitochondrial probe (Brandi G., Casabianca A., Schiavano G.F., et al., "Efficacy and toxicity of long-term administration of 2',3'-dideoxycytidine in the LP-BM5 murine induced immunodeficiency model.", Antiviral Chem. Chemother. 1995; 6:153-61.). […]
Finally, the long term toxicity of Fludara in MAIDS was evaluated. […] Thus, the mitochondrial DNA content in Fludara treated mice was evaluated and only treatment C causes a slight reduction of mitochondrial DNA content (20% vs. untreated mice) although this was not statistically significant. […] The relative amount of mt DNA was determined as described in experimental procedures. […]

LP-BM5 [2] = test: Histopathological examination of liver and lymph node sections; settings: in drinking water at 15 mg/mouse
Excerpt: Samples of lymph nodes and liver from three animals in each treatment group were fixed in 4% paraformaldehyde in phosphate-buffered saline, sectioned, and stained with May Grunwald-Giemsa.

## Nc1nc(F)nc2c1ncn2[C@@H]1O[C@H](COP(=O)(O)O)[C@@H](O)[C@@H]1O [F-ara-AMP, Fludarabine phosphate]
LP-BM5 [1]; 0.065 mg/mouse i.p. 3 days a week for 3 weeks
  Hyperg. (% inh.): 12±10%
LP-BM5 [1]; 0.325 mg/mouse i.p. 3 days a week for 3 weeks
  Hyperg. (% inh.): 16±7%
LP-BM5 [1]; 0.650 mg/mouse i.p. 3 days a week for 3 weeks
  Hyperg. (% inh.): 19±4%
Mitochondrial DNA
  reduction of mitochondrial DNA content: 20%
LP-BM5 [2]
  toxicity in the liver (necrotic cells): some toxicity
